test: n vitro cytoprotection assay: HEp-2 cells, (originally derived from tumors grown in irradiated-cortisonised weanling rats that had been injected with epidermoid carcinoma tissue from a person's larynx, but later found to be indistinguishable from HeLa cells by PCR DNA analysis), were used for the culturing of genotype A, “Long” strain RSV. Flasks were inoculated with RSV and viral stocks were collected once cytopathic effect (CPE) was greater than 90%. Viral stocks in 25% sucrose media were snap frozen using liquid nitrogen to increase viral stability. Viral stock titers were quantified by tissue culture infectious dose 50% (TCID50) using 8,000 cells per well and 3-fold viral dilutions across a 96-well plate, cultured for 4 days.Following extensive parameter testing, the final assay is run as follows: HEp-2 cells are seeded into the inner 60 wells of a 96-well plate at 8,000 cells per well in a volume of 50 using Growth Media (DMEM without phenol red, 1% L-Glut, 1% Penn/Strep, 1% nonessential amino acids, 10% FBS). 2-fold serial dilutions of control and test compounds are added to the wells in duplicate in a total volume of 25 μL. Viral stock is then added to the wells in a volume of 25 μL, bringing the total volume of each well to 100 μL. Each 96-well plate has a control column of 6 wells with cells and virus but no compound (negative control, max CPE), a column with cells but no compound or virus (positive control, minimum CPE), and a column with no cells or virus or compound (background plate/reagent control). The control wells with cells but no virus are given an additional 25 uL of growth media containing an equal quantity of sucrose as those wells receiving the viral stock in order to keep consistent in media and volume conditions. The outer wells of the plate are filled with 125 μL of growth media to act as a thermal and evaporative moat around the test wells. Following a 4-day incubation period, the plates are read using ATPlite (50 uL added per well), which quantifies the amount of ATP (a measure of cell health) present in each well. Assay plates are read using the Envision luminometer.

Row | Compound | EC50 [µM]
1 | O=C(N[C@H]1CN(c2ccccc2)c2ccccc2NC1=O)c1ccccc1 | > 5
2 | O=C1Nc2ccccc2N(c2ccccc2)C[C@@H]1Nc1nnc(-c2ncc(C3CC3)cc2N2CCOCC2)o1 | < 2
3 | NNC(=O)c1ncc(C(F)(F)F)cc1Cl | < 2
4 | NNC(=O)c1cn(-c2ccccn2)nc1N1CCOCC1 | 3.5
5 | NNC(=O)c1nc(-c2cccnc2)sc1N1CCOCC1 | < 2
6 | Cc1ccc(C(=O)NN)o1 | > 5
7 | O=C(Nc1ccccc1)N[C@H]1CN(c2ccccc2)c2ccccc2NC1=O | > 5
8 | COCCNc1cc(C(F)(F)F)cnc1-c1nnc(N[C@H]2CN(c3ccccc3)c3ccccc3NC2=O)o1 | > 5
9 | O=C1Nc2ccccc2N(c2ccccc2)C[C@@H]1Nc1nnc(-c2cn(C3CCCC3)nc2N2CCOCC2)o1 | < 2
10 | O=C1Nc2ccccc2N(c2ccccc2)C[C@@H]1Nc1nnc(-c2cccnc2N2CCOCC2)o1 | 3.5
11 | O=C1Nc2ccccc2N(c2ccccc2)C[C@@H]1Nc1nnc(-c2ccc(N3CCOCC3)cc2F)o1 | > 5
12 | O=C(NNC(=S)NC1C(=O)Nc2ccccc2N(c2ccccc2)C1=O)c1ccccc1 (stereo not given) | > 5
13 | O=C1Nc2ccccc2N(c2ccccc2)C[C@@H]1Nc1nc2ccccc2o1 | > 5
14 | O=C1Nc2ccccc2N(c2ccccc2)C[C@@H]1Nc1nnc(-c2nc(C3CC3)sc2N2CCOCC2)o1 | < 2
15 | O=C1Nc2ccccc2N(c2ccccc2)C[C@@H]1Nc1nnc(-c2ccccc2)o1 | > 5
16 | O=C(NC1C(=O)Nc2ccccc2N(c2ccccc2)C1=O)c1ccccc1 (stereo not given) | > 5
17 | O=C(Nc1ccccc1)NC1C(=O)Nc2ccccc2N(c2ccccc2)C1=O (stereo not given) | > 5
18 | O=C1Nc2ccccc2N(c2ccccc2)C[C@@H]1Nc1nnc(-c2ccc(F)cc2)o1 | > 5
19 | CCOC(=O)c1nc(C(F)(F)F)sc1N1CCOCC1 | < 2
20 | O=C1Nc2ccccc2N(c2cc(F)c(F)c(F)c2)C[C@@H]1Nc1nnc(-c2ncc(C(F)(F)F)cc2N2CCOCC2)o1 | > 5
